Results on 87 compounds are retold here after PubChem BioAssay AID493225 (Broad Institute, 2011).

“And” between values parts separate entries of the source, which are not always exact repeats. Equal values may be shown once. The source made the active and inactive calls.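 The calls were made as follows: active = fitted curve reaching 40% activation, where positive control equals 100, at or below the top valid dose; inconclusive = flat curve between 30 and 70% activation, or a poor fit; inactive = the rest, including activity in the opposite direction.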

Chain of Hypoxia-inducible factor 1-alpha (Homo sapiens) (Q16665 whole entry, looked up): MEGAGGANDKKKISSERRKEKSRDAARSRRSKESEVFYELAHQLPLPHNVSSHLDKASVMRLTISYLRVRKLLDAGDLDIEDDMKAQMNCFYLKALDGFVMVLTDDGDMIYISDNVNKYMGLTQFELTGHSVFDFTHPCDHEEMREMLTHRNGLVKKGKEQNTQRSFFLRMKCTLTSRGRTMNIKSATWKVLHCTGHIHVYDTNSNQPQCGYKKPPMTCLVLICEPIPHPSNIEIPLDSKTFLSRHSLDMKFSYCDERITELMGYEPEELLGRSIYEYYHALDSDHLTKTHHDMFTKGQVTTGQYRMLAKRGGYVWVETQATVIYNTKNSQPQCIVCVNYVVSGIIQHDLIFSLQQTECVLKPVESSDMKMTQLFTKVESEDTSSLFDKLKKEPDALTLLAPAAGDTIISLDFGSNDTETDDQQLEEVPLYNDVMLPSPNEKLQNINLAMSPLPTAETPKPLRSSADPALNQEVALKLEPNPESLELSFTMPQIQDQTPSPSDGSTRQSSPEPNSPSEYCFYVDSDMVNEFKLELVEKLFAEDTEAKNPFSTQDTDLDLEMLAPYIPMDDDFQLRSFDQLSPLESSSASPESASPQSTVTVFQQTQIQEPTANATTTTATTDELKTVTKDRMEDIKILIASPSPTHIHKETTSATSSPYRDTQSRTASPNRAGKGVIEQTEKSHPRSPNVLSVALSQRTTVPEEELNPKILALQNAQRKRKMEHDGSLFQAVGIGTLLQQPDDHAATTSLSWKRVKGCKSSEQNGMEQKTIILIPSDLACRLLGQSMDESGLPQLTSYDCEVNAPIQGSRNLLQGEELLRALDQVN

The first assay addresses Hypoxia-inducible factor 1-alpha (Homo sapiens) (UniProt Q16665). Description: GFP-HIF1alpha nuclear accumulation inducers, dose response, orthogonal assay for HIF activator project, imaging, U2OS GFP-HIF1alpha, high content, dry powder, set 2 (AID 493225). The settings on record: U2OS GFP-HIF1alpha nuclear intensity imaging.
Take `N#CC1(c2ccccc2)CCN(Cc2ccc(O)c3ncccc23)CC1`: the AC40 was 19.8 µM.

Take `O=C(NCCN1CCOCC1)c1cc(-c2ccccc2)on1`: the AC40 was 20.6 µM.

Regarding `Cc1ccc(Nc2nc(-c3ccccn3)nnc2-c2ccccc2)cn1`, the AC40 was 6.61 µM.

In the case of `c1ccc(-c2nnc(-c3ccccn3)nc2NCc2cccnc2)cc1`, the AC40 was 4.19 µM.

Turning to `O=C(NCCCN1CCOCC1)c1cc(-c2ccccc2)on1`, the AC40 was 17.7 µM.

Turning to `CC(C)(C)c1ccc(CNc2nc(-c3ccccn3)nnc2-c2ccccc2)cc1`, the AC40 is 0.249 µM.

Regarding `O=C(Nc1nc2ccccc2s1)c1cc(-c2ccccc2)on1`, the AC40 was 34.9 µM.

On to `c1ccc(-c2nnc(-c3ccccn3)nc2NCCCN2CCOCC2)cc1`, for which the AC40 is 7.52 µM.

For the compound `C[C@@H](Nc1nc(-c2ccccn2)nnc1-c1ccccc1)C1CCCCC1`, the AC40 was 0.456 µM.

Consider `COc1cccc(CNc2nc(-c3ccccn3)nnc2-c2ccccc2)c1`, for which the AC40 is 1.57 µM.

For the compound `c1ccc(-c2cnc(Nc3nc(-c4ccccn4)nnc3-c3ccccc3)s2)cc1`, the AC40 was 19.7 µM.

For the compound `CC(C)(C)CCNC(=O)c1cc(-c2ccccc2)on1`, the AC40 was > 38 µM (inactive).

For `CC1CN(Cc2ccc(O)c3ncccc23)CC(C)O1` (configuration not stated), the AC40 is 20.8 µM.

With `Oc1ccc(CN2CCc3ccccc3C2)c2cccnc12`, the AC40 is 4.51 µM and 18.1 µM.

Consider `c1ccc(-c2nnc(-c3ccccn3)nc2N2CCC(C3CCCCC3)C2)cc1` (configuration not stated), for which the AC40 was 0.265 µM.

With `c1ccc(-c2nnc(-c3ccccn3)nc2NCC2CCOCC2)cc1`, the AC40 is 7.28 µM.

In the case of `c1ccc(-c2ccc(CNc3nc(-c4ccccn4)nnc3-c3ccccc3)cc2)cc1`, the AC40 was 0.164 µM.

As to `CN(C)c1nc(-c2ccccn2)nnc1-c1ccccc1`, the AC40 is 10.4 µM.

`c1ccc(-c2nnc(-c3ccccn3)nc2NCCN2CCOCC2)cc1`: the AC40 was 8.15 µM.

For `c1ccc(-c2csc(Nc3nc(-c4ccccn4)nnc3-c3ccccc3)n2)cc1`, the AC40 was 1.05 µM.

In the case of `c1ccc(-c2nnc(-c3ccccn3)nc2N2CCC(c3ccccc3)C2)cc1` (configuration not stated), the AC40 was 0.689 µM.

As for `c1ccc(-c2nnc(-c3ccccn3)nc2N2CCC(N3CCOCC3)CC2)cc1`, the AC40 was 5.88 µM.

Turning to `O=C(NCC1CC1)c1cc(-c2ccccc2)on1`, the AC40 was 15.4 µM.

For the compound `c1ccc(-c2nnc(-c3ccccn3)nc2N2CCN(c3ccncc3)CC2)cc1`, the AC40 was 3.16 µM.

`CC(C)(C)CCNc1nc(-c2ccccn2)nnc1-c1ccccc1`: the AC40 was 0.357 µM and 0.401 µM.

Take `c1ccc(-c2nnc(-c3ccccn3)nc2NCCc2ccccn2)cc1`: the AC40 was 6.24 µM.

Turning to `C[C@@H](Nc1nc(-c2ccccn2)nnc1-c1ccccc1)c1ccccc1`, the AC40 was 1.5 µM.

As for `Oc1ccc(CNC2CCc3ccccc32)c2cccnc12` (configuration not stated), the AC40 is 13.5 µM.

For the compound `c1ccc(-c2cccc(CNc3nc(-c4ccccn4)nnc3-c3ccccc3)c2)cc1`, the AC40 was 0.359 µM.

Consider `CC(Nc1nc(-c2ccccn2)nnc1-c1ccccc1)c1ccccc1` (configuration not stated), for which the AC40 was 1.1 µM.

As to `CC(C)(C)OC(=O)N1CCN(Cc2ccc(O)c3ncccc23)CC1`, the AC40 was 23.8 µM.

On to `CCCCNC(=O)c1cc(-c2ccccc2)on1`, for which the AC40 was 7.07 µM.

Consider `Cc1cccc(CNc2nc(-c3ccccn3)nnc2-c2ccccc2)c1`, for which the AC40 was 1.31 µM.

As to `c1ccc(-c2nnc(-c3ccccn3)nc2Nc2cnc3ccccc3n2)cc1`, the AC40 is 1.94 µM.

As for `OCCCNc1nc(-c2ccccn2)nnc1-c1ccccc1`, the AC40 is 10.8 µM.

As for `O=C(NCCCO)c1cc(-c2ccccc2)on1`, the AC40 was 6.49 µM.

Regarding `Cc1ccc(NC(=O)c2cc(-c3ccccc3)on2)cn1`, the AC40 is > 38 µM (inactive).

`C[C@H](Nc1nc(-c2ccccn2)nnc1-c1ccccc1)C1CCCCC1`: the AC40 is 0.635 µM.

For the compound `Cc1cccc(Nc2nc(-c3ccccn3)nnc2-c2ccccc2)n1`, the AC40 is 2.72 µM.

Take `Cc1ccccc1CNc1nc(-c2ccccn2)nnc1-c1ccccc1`: the AC40 is 0.628 µM.

Take `c1ccc(-c2nnc(-c3ccccn3)nc2Nc2nc3ccccc3s2)cc1`: the AC40 is 0.491 µM.

With `Cc1ccc(CNc2nc(-c3ccccn3)nnc2-c2ccccc2)cc1C`, the AC40 was 0.736 µM.

For `c1ccc(-c2nnc(-c3ccccn3)nc2NCC2CC2)cc1`, the AC40 was 2.07 µM.

As for `COc1ccc(CNc2nc(-c3ccccn3)nnc2-c2ccccc2)cc1`, the AC40 is 1.09 µM.

In the case of `O=C(NC1Cc2ccccc2C1)c1cc(-c2ccccc2)on1`, the AC40 is > 38 µM (inactive).

As for `Clc1cccc(CNc2nc(-c3ccccn3)nnc2-c2ccccc2)c1`, the AC40 was 0.74 µM.

In the case of `c1ccc(CNc2nc(-c3ccccn3)nnc2-c2ccccc2)cc1`, the AC40 was 1.93 µM.

As for `c1ccc(CCNc2nc(-c3ccccn3)nnc2-c2ccccc2)cc1`, the AC40 was 4.89 µM.

For `c1ccc(-c2nnc(-c3ccccn3)nc2NCC2CCCCC2)cc1`, the AC40 is 0.801 µM.

On to `O=C(NCCN1CCCCC1)c1cc(-c2ccccc2)on1`, for which the AC40 was > 38 µM (inactive).

`O=C(NCCCn1ccnc1)c1cc(-c2ccccc2)on1`: the AC40 was 6.13 µM.

As for `Oc1ccc(CN2CCC(Cc3ccccc3)CC2)c2cccnc12`, the AC40 was 8.98 µM.

For the compound `Cn1c(-c2ccccc2)cnc1Nc1nc(-c2ccccn2)nnc1-c1ccccc1`, the AC40 was > 13.5 µM (inactive).

As to `Oc1ccc(CNC2Cc3ccccc3C2)c2cccnc12`, the AC40 was 5.59 µM.

Consider `O=C(NCCCCO)c1cc(-c2ccccc2)on1`, for which the AC40 is 1.89 µM.

With `C=CCNc1nc(-c2ccccn2)nnc1-c1ccccc1`, the AC40 is 4.73 µM.

As for `c1ccc(-c2nnc(-c3ccccn3)nc2NCc2ccccn2)cc1`, the AC40 was 5.02 µM.

Regarding `OCC1CCN(c2nc(-c3ccccn3)nnc2-c2ccccc2)CC1`, the AC40 was 11 µM.

With `O=C(NC1CCc2ccccc2C1)c1cc(-c2ccccc2)on1` (configuration not stated), the AC40 is > 38 µM (inactive).

As for `CN1CCN(c2nc(-c3ccccn3)nnc2-c2ccccc2)CC1`, the AC40 was 5.53 µM.

As for `Oc1ccc(CN2CCC3CCCCC3C2)c2cccnc12` (configuration not stated), the AC40 was 5.14 µM.

As to `c1ccc(-c2nnc(Nc3nc(-c4ccccn4)nnc3-c3ccccc3)s2)cc1`, the AC40 is 13.7 µM.

For the compound `Cc1ccc(CNc2nc(-c3ccccn3)nnc2-c2ccccc2)cc1`, the AC40 is 0.727 µM.

Regarding `COc1ccccc1N1CCN(Cc2ccc(O)c3ncccc23)CC1`, the AC40 is 14.8 µM.

With `OCC1CCN(Cc2ccc(O)c3ncccc23)CC1`, the AC40 is 3.69 µM.

Staying with this assay, now noted: U2OS GFP-HIF1alpha nuclear intensity imaging; at 38 µM (top of the series).
For the compound `Cc1cccc(CNC(=O)c2cc(-c3ccccc3)on2)c1`, the activation is 9.64% (inactive).

As to `Cc1ccccc1CNC(=O)c1cc(-c2ccccc2)on1`, the activation was 3.19% (inactive).

Consider `Cn1c(-c2ccccc2)cnc1NC(=O)c1cc(-c2ccccc2)on1`, for which the activation is 12.3% (inactive).

With `O=C(Nc1nnc(-c2ccccc2)s1)c1cc(-c2ccccc2)on1`, the activation was -3.81% (inactive).

On to `O=C(NCC1CCCCC1)c1cc(-c2ccccc2)on1`, for which the activation is 8.55% (inactive).

Regarding `Cc1cccc(NC(=O)c2cc(-c3ccccc3)on2)n1`, the activation is 0.577% (inactive).

As to `O=C(c1cc(-c2ccccc2)on1)N1CCC(CO)CC1`, the activation was -3.23% (inactive).

For `O=C(Nc1ncc(-c2ccccc2)o1)c1cc(-c2ccccc2)on1`, the activation was -4.43% (inactive).

Regarding `O=C(Nc1cn2ccccc2n1)c1cc(-c2ccccc2)on1`, the activation was 9.51% (inactive).

For the compound `O=C(NCc1ccccc1)c1cc(-c2ccccc2)on1`, the activation was 5.64% (inactive).

As to `O=C(Nc1cnc2ccccc2c1)c1cc(-c2ccccc2)on1`, the activation was -3.02% (inactive).

As for `O=C(Nc1ncc2ccccc2n1)c1cc(-c2ccccc2)on1`, the activation was 10.3% (inactive).

In the case of `O=C(c1cc(-c2ccccc2)on1)N1CCC(N2CCOCC2)CC1`, the activation is -1.88% (inactive).

Turning to `O=C(c1cc(-c2ccccc2)on1)N1CCC(N2CCCC2)CC1`, the activation is 3.26% (inactive).

For the compound `O=C(c1cc(-c2ccccc2)on1)N1CCc2cccnc21`, the activation was 3.77% (inactive).

Turning to `O=C(c1cc(-c2ccccc2)on1)N1CCN(c2ccncc2)CC1`, the activation is -1.92% (inactive).

For the compound `CN(C)CCNC(=O)c1cc(-c2ccccc2)on1`, the activation was 9.39% (inactive).

As to `Cc1ccc(CNC(=O)c2cc(-c3ccccc3)on2)cc1`, the activation is 7.41% (inactive).

As for `CN1CCN(C(=O)c2cc(-c3ccccc3)on2)CC1`, the activation is -2.52% (inactive).

Regarding `O=C(Nc1nc(-c2ccccc2)cs1)c1cc(-c2ccccc2)on1`, the activation is 3.11% (inactive).

`O=C(Nc1ccc2ccccc2n1)c1cc(-c2ccccc2)on1`: the activation is -3.66% (inactive).

Turning to `Cn1c(NC(=O)c2cc(-c3ccccc3)on2)nc2ccccc21`, the activation is -4.79% (inactive).
